The text below walks through data of patent US20230017661A1, “COMPOSITIONS AND MODULAR NANO- AND MICROPARTICLES FOR THE DELIVERY OF VARIOUS AGENTS AND USE THEREOF” (Veri Nano Inc., priority 2019, published 2023).

Molecules are shown by their SMILES.

This series in a line: Encapsulation efficiency by 1H NMR analysis of nanoparticles. Format: physicochemical. The following applies: DMF internal standard, DMSO-d6, agent within the nanoparticle delivery system. Here is the method:
For the ^1H NMR analysis, the nanoparticle suspension was centrifuged at 3214 rcf for 30 min. The supernatant was decanted. DMF was added to the precipitate as the internal reference for ^1H NMR analysis and weighed the amount added. DMSO-d6, was added and heated to 60° C. to dissolve the sample. The ^1H NMR was performed at 60° C.

Regarding `CCCCCCCC/C=C\CCCCCCCC(=O)O` [oleic acid], the encapsulation efficiency came out at 19%. Take `CCC(=O)OC/C=C(C)/C=C/C=C(C)/C=C/C1=C(C)CCCC1(C)C` [vitamin A-propionate, retinyl propionate]: the encapsulation efficiency is reported as 42.7%.
